According to article PMC5548612 (Drug and alcohol dependence, 2017):

Legend:
Assay in all cases: competitive radioligand binding
sigma-1 receptor = target: sigma-1 receptor
5-HT2C receptor = target: T1, 5-HT2C receptor (Homo sapiens, UniProt P28335)
T1 sequence (P28335 33-458): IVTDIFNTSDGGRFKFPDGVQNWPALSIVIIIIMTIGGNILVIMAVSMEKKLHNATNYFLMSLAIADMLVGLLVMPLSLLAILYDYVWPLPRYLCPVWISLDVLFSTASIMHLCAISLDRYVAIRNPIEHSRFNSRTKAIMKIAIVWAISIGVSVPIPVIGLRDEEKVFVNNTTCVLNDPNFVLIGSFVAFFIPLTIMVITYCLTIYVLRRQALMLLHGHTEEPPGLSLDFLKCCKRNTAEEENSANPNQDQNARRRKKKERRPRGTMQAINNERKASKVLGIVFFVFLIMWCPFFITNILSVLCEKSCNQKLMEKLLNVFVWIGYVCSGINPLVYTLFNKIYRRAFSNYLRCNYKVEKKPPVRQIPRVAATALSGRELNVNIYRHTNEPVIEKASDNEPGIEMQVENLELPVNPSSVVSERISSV

5-HT2B receptor = 5-HT2B receptor (Homo sapiens, UniProt P41595)
Chain of 5-HT2B receptor (P41595 whole entry): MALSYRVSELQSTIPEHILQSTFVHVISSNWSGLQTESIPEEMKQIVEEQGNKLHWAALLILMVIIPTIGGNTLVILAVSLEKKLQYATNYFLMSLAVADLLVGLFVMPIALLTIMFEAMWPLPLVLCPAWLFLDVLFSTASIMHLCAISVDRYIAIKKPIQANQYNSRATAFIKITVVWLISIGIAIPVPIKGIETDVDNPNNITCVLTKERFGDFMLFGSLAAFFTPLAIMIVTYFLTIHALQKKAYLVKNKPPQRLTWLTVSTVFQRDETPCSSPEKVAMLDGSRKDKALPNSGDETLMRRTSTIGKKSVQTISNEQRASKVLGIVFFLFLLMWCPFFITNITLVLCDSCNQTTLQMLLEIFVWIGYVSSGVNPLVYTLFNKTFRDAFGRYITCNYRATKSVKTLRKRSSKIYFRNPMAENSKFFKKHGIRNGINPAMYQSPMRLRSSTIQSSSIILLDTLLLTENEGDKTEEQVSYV

## CN[C@@H](C)C(=O)c1ccc(C)cc1 [S-MEPH, S-mephedrone]
sigma-1 receptor
  Ki: 1500 nM
5-HT2C receptor
  Ki: 3900 nM
5-HT2B receptor
  Ki: 857 nM
